# According to US10034922B2, “Peptide having angiogenesis inhibitory activity and composition containing same” (GemVax & KAEL Co., Ltd., priority 2013, dated 2018):
# Legend:
# HSP70 = HSP70 protein level by immunoblotting, serum-free media, 2 h treatment; format: cell-based, human; conditions: MCF7 cells, PEP1 20 μM, 17-AAG 1 μM, KNK437 1 μM
# Method: (§1) Jurkat and MCF7 cells ([…]) were seeded and incubated for 12 hours. After treating the starvation for 2 hours by adding the OPTI-MEM media, same as the shown figure, the cells were treated by the PEP1 at the different concentrations, by the scrambled peptides, […] (1 μM) or KNK437 (1 μM). After the 2-hour incubation, the cells were collected and lysated by using cell lysis buffer (Thermo Scientific, IL, USA). By using Bradford Protein Assay (Bio-Rad, USA), the protein concentration was quantified, and the samples were treated by SDS-PAGE and immunoblotting with α-HSP70 (sc-32239 and sc-66048, Santa Cruz, Calif., USA), α-HSP90 (ab1429, abcam, USA), α-GRP78 (sc-13968), α-HIF-1a (sc-10790) or α-GAPDH (sc-25778) antibodies. The immune reactive band was visualized by the intensive chemiluminescence kit (iNtRoN Biotechnology, INC, Korea), and analyzed by ImageQuant™ LAS-4000 (GE Healthcare Life Science, NJ, US).
# HSP90 = HSP90 protein level by immunoblotting, serum-free media, 2 h treatment; format: cell-based, human; conditions: 17-AAG 1 μM, KNK437 1 μM
# Method: as §1
SMILES,"amount of HSP70, comparison with HSP inhibitors (HSP70)","amount of HSP90, comparison with HSP inhibitors (HSP90; Jurkat cells, PEP1 5 μM)","amount of HSP90, comparison with HSP inhibitors (HSP90; MCF7 cells, PEP1 20 μM)"
O=CN1CC/C(=C\c2ccc3c(c2)OCO3)C1=O [KNK437],decrease,decreased,decrease
C=CCNC1=C2C[C@@H](C)C[C@H](OC)[C@H](O)[C@@H](C)/C=C(\C)[C@H](OC(N)=O)[C@@H](OC)/C=C\C=C(/C)C(=O)NC(=CC1=O)C2=O [17-AAG],very little effect,decreased,very little effect
